# From patent US20060020027A1, “Use of curcumanoids as histone acetyltransferases (HATs) inhibitors” (priority 2004, published 2006)
# Tests used:
# [1] = target: p300 (Homo sapiens, UniProt Q09472); test: Histone acetyltransferase (HAT) assay, filter binding and gel, with p300; type: biochemical; details: varying acetyl CoA or histone concentration; 25 and 30 μM curcumin
# Source text: The results were plotted using the Graph Pad Prism software.
# [2] = target: CBP (Homo sapiens, UniProt Q92793); test: Histone acetyltransferase (HAT) assay with CBP; type: biochemical; details: core histones
# Experimental: (§1) Histone acetyltransferase Assay: HAT assays were performed as described previously (30). […] The reaction mixture was then blotted onto P-81 (Whatman) filter paper and radioactive counts were recorded on a Wallac 1409 liquid scintillation counter. The radiolabeled acetylated histones were visualized by resolving on 15% SDS-polyacrylamide gel and subjected to fluorography followed by autoradiography.
# [3] = target: PCAF (Homo sapiens, UniProt Q92831); test: Histone acetyltransferase (HAT) assay with PCAF; type: biochemical; details: 100 μM curcumin
# Experimental: as §1
# [4] = target: T1, lysine methyltransferase G9a (Homo sapiens, UniProt Q96KQ7); test: Histone methyltransferase assay with G9a; type: biochemical; details: 50 and 100 μM curcumin
# T1 construct: bacterially expressed HMTase domain of G9a fused to GST (31); GST; made in house
# T1 sequence (Q96KQ7 830-1209 limits assumed): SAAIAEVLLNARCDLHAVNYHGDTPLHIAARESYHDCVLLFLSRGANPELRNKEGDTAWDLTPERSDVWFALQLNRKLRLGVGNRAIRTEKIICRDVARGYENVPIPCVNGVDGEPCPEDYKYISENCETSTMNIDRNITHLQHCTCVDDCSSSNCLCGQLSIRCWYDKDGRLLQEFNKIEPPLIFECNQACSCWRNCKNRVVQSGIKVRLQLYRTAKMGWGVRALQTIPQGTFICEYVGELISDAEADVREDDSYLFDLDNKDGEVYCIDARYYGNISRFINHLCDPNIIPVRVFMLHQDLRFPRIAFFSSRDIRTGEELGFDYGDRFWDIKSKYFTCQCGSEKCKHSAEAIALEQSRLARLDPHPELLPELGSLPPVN
# Experimental: (§2) Histone methyltransferase and deacetylase Assays: Histone methyltransferase assays were performed in a 30 μl reaction. […] After the initial incubation, 1 μl of 8.3 Ci/mmol ^3H—S— Adenosyl Methionine was added to the reaction mixtures and the incubation continued for 1 hour (in the case of nuclear extract) or for 15 minutes (in the case of G9a). The reaction products were TCA precipitated, resolved on 15% SDS-PAGE and subjected to fluorography followed by autoradiography.
# (§3) The reaction products were TCA precipitated, resolved on 15% SDS-PAGE and subjected to fluorography followed by autoradiography.
# [5] = system: histone methyltransferase enzymes of HeLa nuclear extract; test: Histone methyltransferase assay with HeLa nuclear extract; type: biochemical; details: 50 and 100 μM curcumin
# Experimental: as §2, §3
# [6] = system: transcription from DNA template; test: In vitro transcription from DNA template; type: biochemical; details: even at 300 μM
# Experimental: (§4) In vitro Transcription Assay: Transcription assays were carried out as described elsewhere (9) with the necessary modifications. The reconstituted chromatin template (containing 30 ng DNA) or an equimolar amount of histone—free DNA was incubated with 50 ng of activator (Gal4-VP16) in a buffer containing 4 mM HEPES (pH 7.8), 20 mM KCl, 2 mM DTT, 0.2 mM PMSF, 10 mM sodium butyrate, 0.1 mg/ml bovine serum albumin, 2% glycerol. […] HeLa nuclear extract (5 μl, which contains 8 mg/ml protein) was added then to initiate the preinitiation complex formation. Transcription reaction was started by the addition of NTP-mix and α-[^32P] UTP after the preinitiation complex formation and incubated further for 40 min at 30° C. For loading control separate reaction was setup with ˜25 ng of supercoiled ML200 DNA, and the transcription assay was carried out as described above, without the addition of the activator (Gal4-VP16) and 2 μl of this reaction was added to each of the transcription reactions. […] Transcripts were analysed by 5% Urea-PAGE and quantification of transcription was done by phosphoimager (Fuji) analysis. […]
# (§5) (A), Schematic representation of the in vitro transcription protocol. […] The in vitro transcription reaction mixtures were analyzed on 5% urea-acrylamide gel and further processed by autoradiography.
# [7] = system: p300 HAT activity dependent chromatin transcription; test: In vitro transcription from chromatin template; type: biochemical
# Experimental: In Vitro Chromatin Assembly: Chromatin template for in vitro transcription experiments was assembled and characterized as described earlier (9).
# as §4, with “C.” for “C. For loading control separate reaction was setup with ˜25 ng of supercoiled ML200 DNA, and the transcription assay was carried out as described above, without the addition of the activator (Gal4-VP16) and 2 μl of this reaction was added to each of the transcription reactions.”
# as §5
# [8] = system: HeLa cells; test: Apoptosis assay (Hoechst staining, nuclear fragmentation); type: cell-based; details: 24 hours exposure to 75-100 μM
# Experimental: Apoptosis assay: Curcumin-induced apoptosis was monitored by the extent of nuclear fragmentation. Nuclear fragmentation was visualized by Hoechst staining of apoptotic nuclei. The apoptotic cells were collected by centrifugation, washed with PBS and fixed in 4% paraformaldehyde for 20 minutes at room tempertature. Subsequently the cells were washed and resuspended in 20 μl PBS before depositing it on poly lysine-coated coverslips and were left to adhere on cover slips for 30 min at room temperature after which the cover slips were washed twice with PBS. The adhered cells were then incubated with 0.1% Triton X-100 for 5 min at room temperature and rinsed with PBS for three times. The coverslips were treated with Hoechst 33258 for 30 minutes at 37° C., rinsed with PBS and mounted them on slides with glycerol-PBS and processed as described previously (29).
# Arrows indicate apoptotic nuclear fragmentation
# [9] = system: acetylation of histones in HeLa cells; test: In vivo histone acetylation in cells (AUT gel and western blotting); type: cell-based
# Experimental: Acid/Urea/Triton (A UT) polyacrylamide gel electrophoresis and Western Blotting for in vivo acetylated histones: HeLa cells (3×10^6 cells per 90 mm dish) were seeded overnight and histones were extracted from 24 hours of compound treated cells as reported earlier (29,32). Briefly, cells were harvested, washed in ice-cold buffer A (150 mM KCl, 20 mM HEPES, pH 7.9, 0.1 mM EDTA and 2.5 mM MgCl2) and lysed in buffer A containing 250 mM sucrose and 1% (v/v) Triton X 100. Nuclei were recovered by centrifugation, washed, and proteins were extracted for 1 h using 0.25 M HCl. The proteins were precipitated with 25% (w/v) trichloroacetic acid (TCA) and sequentially washed with ice-cold acidified acetone (20 μl of 12N HCl in 100 ml acetone), and acetone, air-dried and dissolved in the sample buffer (5.8 M urea, 0.9 M glacial acetic acid, 16% glycerol, and 4.8% 2-mercaptoethanol). The histones (equal amounts in all lanes) were resolved on AUT gel as described elsewhere (33,34).
# For western blotting, the quantitated protein samples were run on a 12% SDS-polyacrylamide gel and following electrophoresis, proteins on the gel were electrotransferred onto an immobilon membrane (PVDF; Millipore Corp., Bedford, Mass.). The membranes were then blocked in 5% skim milk powder solution in 1×PBS containing 0.05% Tween 20 and then immunoblotted with anti-acetyl H3 (Calbiochem), anti-acetyl H4 (a kind gift from Dr. Alaine Verrault) and anti-H3 respectively. Detection was performed using goat anti-rabbit secondary antibody (Bangalore Genei) and bands were visualized by ECL detection system (Pierce).
# (B) HeLa cells were treated as indicated, for 24 hours, histones were extracted and separated on an 18% acid/urea/triton (AUT) PAGE. The protein bands were visualized by Coomassie brilliant blue staining. […] Asterisk (*) indicates hyperacetylation of histones in response to HDAC inhibition by TSA and sodium butyrate. […] (C). The acid-extracted histones were resolved over 12% SDS-PAGE and were analyzed by western blot using antibodies against acetylated histone H3 and H4. Loading and transfer of equal amounts of protein were confirmed by immunodetection of histone H3. (D) 293 T cells were transiently transfected with CMV-p53 and CMV-p300 either alone or in combination as indicated. […] The p53 protein was immunoprecipitated from the cell lysates using p53 monoclonal antibody and acetylation status was analyzed by western blotting. Lanes 1 and 4, transfection with p53 alone; lanes 2 and 5, co-transfection with p53 and p300; lanes 3 and 6, transfection with p300 alone. (IP:Immunoprecipitation and IB: Immunoblotting).
# [10] = system: acetylation of p53 in 293 T cells; test: p53 acetylation in transfected cells (immunoprecipitation, western blotting); type: cell-based; details: 24 hours
# Experimental: 293 T cells were transfected with CMV-p53 and CMV-p300 using Lipofectamine 2000 reagent (Invitrogen) according to the manufacturer's instructions. […] The cells were harvested using RIPA buffer (150 mM NaCl, 50 mM Tris pH 7.4, 1% NP40, 0.1% Sodium deoxycholate, 1 mM EDTA, 0.5 μg/ml leupeptin, 0.5 μg/ml aprotinin and 0.5 μg/ml pepstatin) and the p53 protein was immunoprecipitated from the lysates using mouse monoclonal anti-p53 antibody, DO1 (oncogene). The immunocomplexes were bound on protein G-sepharose beads (Amersham Pharmacia) for 12 hours at 4° C., washed 3 times with RIPA buffer and subjected to SDS-PAGE on a 10% gel followed by western blotting using mouse monoclonal anti-p53 antibody, pAb421 or mouse monoclonal anti-acetylated lysine antibody.
# (B) HeLa cells were treated as indicated, for 24 hours, histones were extracted and separated on an 18% acid/urea/triton (AUT) PAGE. The protein bands were visualized by Coomassie brilliant blue staining. […] Asterisk (*) indicates hyperacetylation of histones in response to HDAC inhibition by TSA and sodium butyrate. […] (C). The acid-extracted histones were resolved over 12% SDS-PAGE and were analyzed by western blot using antibodies against acetylated histone H3 and H4. […] The p53 protein was immunoprecipitated from the cell lysates using p53 monoclonal antibody and acetylation status was analyzed by western blotting. […]
# [11] = system: HIV-1 (H9/HTLV-IIIb NIH 1983 cells cocultured with SupT1 cells); test: Syncytium inhibition assay; type: cell-based; details: 12 h
# Experimental: Syncytium inhibition assay: The cell lines SupT1 and H9/HTLV-IIIb NIH 1983 were obtained from The AIDS Research and Reference Reagent Program. H9/HTLV-IIIb NIH 1983 cells carrying a stably integrated provirus were cocultured with excess numbers of SupT1 cells at a ration of 1:200 or 1:400. A total of […] were seeded per well in a 24-well plate and cultured in RPMI medium supplemented with 10% fetal calf serum and antibiotics. […] All the wells received the same amount of DMSO including the control wells. Formation of syncytia was visible under light microscope within 12 hrs. The total number of syncytia in 10 representative wells was counted at different time points (12, 24 and 48 h) and data for 12 h time point are presented. Identical results were obtained at other time points. All the assays were performed in triplicate wells and the experiment was performed two times.
# (A), H9/HTLV-IIIb NIH 1983 carrying stable integrated virus were cocultured with excess numbers of SupT1 cells at 1:200 or 1:400 ratio. A total of 0.1×10^6 cells were seeded per well. […] Formation of syncytia is visible under light microscope within 12 hrs. The total number of syncytia in 10 representative wells was counted and presented. The data are representative of 2 independent experiments.
# [12] = system: SupT1 cells; test: Trypan blue exclusion analysis of viable cells; type: cell-based; details: 100 μM curcumin, 48 hrs
# Source text: Various experimental formats have been used to evaluate infection of target cells by HIV or inhibition of the viral infection in the presence of an anti-viral compound (44, 45). The standard format is to add titered viral stock to the target cells at a known multiplicity of infection (MOI) in the presence or absence of an anti-viral compound and monitor the synthesis of the viral structural protein p24 or the enzyme reverse transcriptase (46, 47). In the natural context, the viral transfer is more efficient through cell-to-cell contact rather than free virus infecting a target cell. Prevention of the viral transfer between cells is technically more difficult than neutralizing the free virus. SupT1 cells are highly […] for HIV-1 and these cells make numerous and large syncytia when infected with the virus. Taking advantage of this property, we co-cultured SupT1 cells in the presence of H9/HTLV-IIIb NIH 1983 cells that produce a T-cell tropic virus. […] To rule out the possibility of cytotoxicity and cell death, we determined the number of viable cells in all the wells using a trypan blue exclusion analysis.
# [13] = target: T2, p300 (substrate HIV-Tat protein) (Homo sapiens, UniProt Q09472); test: Acetylation of Tat protein by p300 (HAT assay); type: biochemical; details: […] and 50 μM curcumin
# T2 construct: made in house
# Experimental: as §1
# (B), the percentage of acetylation was calculated in each of the cases by accounting for the corrections of acetylation in the case of Tat alone.
# [14] = HeLa cells, TSA and sodium butyrate, with versus without curcumin (lane 5 versus 6)
# p300, sequence (Q09472 whole entry, species assumed): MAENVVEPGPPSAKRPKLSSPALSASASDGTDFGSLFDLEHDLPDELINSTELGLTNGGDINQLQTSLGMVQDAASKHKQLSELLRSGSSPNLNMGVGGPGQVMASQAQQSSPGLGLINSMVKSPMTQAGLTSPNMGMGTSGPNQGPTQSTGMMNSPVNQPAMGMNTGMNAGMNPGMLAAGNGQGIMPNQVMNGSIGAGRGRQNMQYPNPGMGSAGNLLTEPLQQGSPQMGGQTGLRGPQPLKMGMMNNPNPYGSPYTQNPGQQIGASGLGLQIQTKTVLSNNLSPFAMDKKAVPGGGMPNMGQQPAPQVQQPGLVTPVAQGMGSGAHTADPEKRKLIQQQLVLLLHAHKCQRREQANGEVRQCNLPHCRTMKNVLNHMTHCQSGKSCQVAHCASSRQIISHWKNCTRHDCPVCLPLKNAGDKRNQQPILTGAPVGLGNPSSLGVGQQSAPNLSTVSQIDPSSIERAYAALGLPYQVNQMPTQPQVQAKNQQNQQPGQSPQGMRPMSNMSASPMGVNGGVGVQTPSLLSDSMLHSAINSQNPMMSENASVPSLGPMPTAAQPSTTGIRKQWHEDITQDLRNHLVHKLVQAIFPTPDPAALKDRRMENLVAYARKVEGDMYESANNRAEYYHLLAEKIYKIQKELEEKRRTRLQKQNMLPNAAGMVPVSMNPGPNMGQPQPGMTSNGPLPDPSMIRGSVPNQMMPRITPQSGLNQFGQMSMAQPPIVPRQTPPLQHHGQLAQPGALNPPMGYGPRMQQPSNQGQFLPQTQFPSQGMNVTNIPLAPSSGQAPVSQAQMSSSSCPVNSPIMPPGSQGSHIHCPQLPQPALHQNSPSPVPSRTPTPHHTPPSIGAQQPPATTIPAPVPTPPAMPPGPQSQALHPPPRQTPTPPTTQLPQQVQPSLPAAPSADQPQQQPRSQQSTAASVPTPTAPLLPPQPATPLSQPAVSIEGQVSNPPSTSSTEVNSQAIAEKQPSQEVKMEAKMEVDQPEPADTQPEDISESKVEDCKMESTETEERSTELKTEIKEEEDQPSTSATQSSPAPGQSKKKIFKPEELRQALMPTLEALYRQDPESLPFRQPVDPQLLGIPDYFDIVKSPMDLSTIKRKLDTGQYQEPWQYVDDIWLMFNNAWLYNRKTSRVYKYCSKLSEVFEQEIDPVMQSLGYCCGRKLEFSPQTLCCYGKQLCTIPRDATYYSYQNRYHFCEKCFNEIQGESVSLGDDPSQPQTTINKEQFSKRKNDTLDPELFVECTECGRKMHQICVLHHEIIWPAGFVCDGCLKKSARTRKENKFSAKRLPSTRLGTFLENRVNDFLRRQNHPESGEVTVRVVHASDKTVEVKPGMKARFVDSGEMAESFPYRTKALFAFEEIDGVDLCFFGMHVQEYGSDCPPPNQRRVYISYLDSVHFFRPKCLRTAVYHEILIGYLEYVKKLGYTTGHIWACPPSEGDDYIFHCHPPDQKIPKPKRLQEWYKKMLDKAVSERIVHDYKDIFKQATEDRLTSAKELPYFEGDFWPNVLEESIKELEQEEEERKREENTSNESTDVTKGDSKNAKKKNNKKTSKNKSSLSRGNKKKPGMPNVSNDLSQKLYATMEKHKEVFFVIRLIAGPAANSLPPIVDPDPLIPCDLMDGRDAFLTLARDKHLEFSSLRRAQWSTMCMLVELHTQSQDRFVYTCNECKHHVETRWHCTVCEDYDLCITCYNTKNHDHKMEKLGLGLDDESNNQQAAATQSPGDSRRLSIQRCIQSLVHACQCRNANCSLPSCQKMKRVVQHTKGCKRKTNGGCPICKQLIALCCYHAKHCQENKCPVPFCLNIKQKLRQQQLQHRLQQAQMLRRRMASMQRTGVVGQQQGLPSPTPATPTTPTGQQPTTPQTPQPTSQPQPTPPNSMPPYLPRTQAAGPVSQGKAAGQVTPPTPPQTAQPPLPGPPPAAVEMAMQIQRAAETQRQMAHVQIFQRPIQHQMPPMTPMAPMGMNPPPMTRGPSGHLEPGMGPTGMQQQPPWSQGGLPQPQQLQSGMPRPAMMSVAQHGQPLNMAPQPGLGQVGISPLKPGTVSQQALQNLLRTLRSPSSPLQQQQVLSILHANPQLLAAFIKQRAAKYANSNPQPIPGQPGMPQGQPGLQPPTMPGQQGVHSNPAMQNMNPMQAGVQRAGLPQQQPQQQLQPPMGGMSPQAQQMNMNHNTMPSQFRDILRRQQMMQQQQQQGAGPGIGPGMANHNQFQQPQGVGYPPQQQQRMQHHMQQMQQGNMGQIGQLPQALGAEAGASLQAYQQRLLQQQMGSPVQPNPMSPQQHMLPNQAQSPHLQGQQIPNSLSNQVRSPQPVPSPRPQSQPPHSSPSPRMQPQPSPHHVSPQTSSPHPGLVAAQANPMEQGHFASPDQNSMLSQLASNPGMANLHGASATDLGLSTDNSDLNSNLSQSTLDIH
# PCAF, sequence (Q92831 whole entry, species assumed): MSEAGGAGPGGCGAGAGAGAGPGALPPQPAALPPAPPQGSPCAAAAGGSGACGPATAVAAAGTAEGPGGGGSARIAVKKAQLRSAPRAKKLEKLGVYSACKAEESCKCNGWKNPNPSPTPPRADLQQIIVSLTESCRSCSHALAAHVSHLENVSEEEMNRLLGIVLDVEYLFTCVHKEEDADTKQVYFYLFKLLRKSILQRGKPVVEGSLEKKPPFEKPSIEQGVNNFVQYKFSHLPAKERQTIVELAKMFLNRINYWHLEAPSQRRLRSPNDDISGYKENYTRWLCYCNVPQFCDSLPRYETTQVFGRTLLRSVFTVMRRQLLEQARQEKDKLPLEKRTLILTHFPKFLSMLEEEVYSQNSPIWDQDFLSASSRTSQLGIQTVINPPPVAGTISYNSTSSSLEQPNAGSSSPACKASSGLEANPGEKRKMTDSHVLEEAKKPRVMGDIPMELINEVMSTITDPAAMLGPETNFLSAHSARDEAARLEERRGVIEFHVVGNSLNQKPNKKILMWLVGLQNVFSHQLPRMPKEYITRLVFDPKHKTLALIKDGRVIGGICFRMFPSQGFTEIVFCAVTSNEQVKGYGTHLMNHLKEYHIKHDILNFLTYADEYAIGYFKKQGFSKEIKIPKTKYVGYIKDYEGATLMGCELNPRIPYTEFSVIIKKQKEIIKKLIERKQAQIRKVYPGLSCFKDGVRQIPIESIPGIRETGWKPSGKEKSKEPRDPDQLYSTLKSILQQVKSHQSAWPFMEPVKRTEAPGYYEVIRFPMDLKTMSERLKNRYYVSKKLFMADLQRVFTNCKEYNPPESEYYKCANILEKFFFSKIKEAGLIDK
# T2 sequence (Q09472 whole entry, species assumed): as the sequence (Q09472 whole entry, species assumed) above
structure (smiles),measurement,setting,value
COc1cc(/C=C/C(=O)CC(=O)/C=C/c2ccc(O)c(OC)c2)ccc1O [curcumin],Kcat of p300 HAT activity,[1],decreased
same,Km of p300 HAT activity,[1],decreased
same,Vmax of p300 HAT activity,[1],decreased
same,inhibition of CBP HAT activity,[2],potent and specific inhibitor
same,PCAF HAT activity,[3],no change
same,histone methylation by G9a,[4],remains same
same,methylation of core histones by HeLa nuclear extract (NE),[5],no difference
same,transcription from the DNA template,[6],not affected
same,repression of p300 HAT activity dependent chromatin transcription,[7]; 100 μM,≤ 3 fold
same,repression of p300 HAT activity dependent chromatin transcription,[7]; 300 μM,≤ 8 fold
same,apoptosis (nuclear fragmentation),[8],induces the apoptosis
same,acetylation of histones (AUT gel),"[9]; HeLa cells hyperacetylated with TSA and sodium butyrate, 100 μM curcumin",inhibited
same,unacetylated form of histone H4 and H2B (AUT gel),"[9]; HeLa cells, 75 and 100 μM curcumin, 24 hours",modestly increased
same,inhibition of H3 acetylation (western blotting),[9]; [14],6 fold
same,inhibition of H4 acetylation (western blotting),[9]; [14],10 fold
same,p300-mediated acetylation of p53,"[10]; 293 T cells transfected with p53 and p300, 100 μM curcumin",completely inhibits
same,acetylation status of the endogenous p53,"[10]; 293 T cells transfected with p300 alone, 100 μM curcumin",not altered
same,number of syncytia,[11]; highest concentration of curcumin,no syncytia were seen
same,number of syncytia,[11]; increasing concentration of curcumin,dose-dependent reduction
same,"cytotoxicity (viable cells, trypan blue exclusion)",[12],not cytotoxic
same,acetylation of Tat by p300 in vitro,[13],strongly inhibits
